Source: US11970494B2, “6-heteroaryloxy benzimidazoles and azabenzimidazoles as JAK2 inhibitors” (Ajax Therapeutics, Inc., priority 2021, dated 2024)

These compounds were tested against T1, JAK2 (JH1 domain-catalytic, Y1007F,Y1008F) kinase (Homo sapiens, UniProt O60674, Y1007F/Y1008F) (assay: JAK2 Binding Assay (JAK2 JH1 Domain Binding Assay)). Settings: JAK2 JH1 domain binding, qPCR detection; read-out: JAK2 Kd.
T1 construct: made in house; host or cells: transiently transfected HEK293 cells
T1 sequence (O60674 849-1124 Y1007F/Y1008F limits assumed): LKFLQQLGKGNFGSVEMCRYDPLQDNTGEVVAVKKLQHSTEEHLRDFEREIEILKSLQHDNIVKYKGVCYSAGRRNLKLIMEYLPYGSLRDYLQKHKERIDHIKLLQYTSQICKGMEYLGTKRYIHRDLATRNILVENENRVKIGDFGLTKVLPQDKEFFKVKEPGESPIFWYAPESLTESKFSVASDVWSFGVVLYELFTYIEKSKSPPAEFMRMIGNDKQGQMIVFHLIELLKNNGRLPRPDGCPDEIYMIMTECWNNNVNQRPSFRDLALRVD
Compound `CNC(=O)Nc1cc(Oc2cnc3nc(Nc4cc5n(n4)CCCC5(F)F)n(C)c3c2C#N)ccn1` [Example I-27, 1-(4-((7-cyano-2-((4,4-difluoro-4,5,6,7-tetrahydropyrazolo[1,5-a]pyridin-2-yl)amino)-1-methyl-1H-imidazo[4,5-b]pyridin-6-yl)oxy)pyridin-2-yl)-3-methylurea] has a Kd of under 10 nM. `Cn1c(Nc2cc3n(n2)CCCC3(F)F)nc2ncc(Oc3ccnc(NC(=O)N4CC[C@@H](O)C4)c3)c(C#N)c21` [Example I-28, (R)-N-(4-((7-cyano-2-((4,4-difluoro-4,5,6,7-tetrahydropyrazolo[1,5-c]pyridin-2-yl)amino)-1-methyl-1H-imidazo[4,5-b]pyridin-6-yl)oxy)pyridin-2-yl)-3-hydroxypyrrolidine-1-carboxamide] gave a Kd of under 10 nM. Work on `Cn1c(Nc2cc3n(n2)CCCC3(F)F)nc2ncc(Oc3ccnc(NC(=O)N4CC[C@H](O)C4)c3)c(C#N)c21` [Example I-29, (S)-N-(4-((7-cyano-2-((4,4-difluoro-4,5,6,7-tetrahydropyrazolo[1,5-a]pyridin-2-yl)amino)-1-methyl-1H-imidazo[4,5-b]pyridin-6-yl)oxy)pyridin-2-yl)-3-hydroxypyrrolidine-1-carboxamide] yielded a Kd of 10 to 50 nM. For `COC(=O)Nc1cc(Oc2cnc3nc(Nc4cc(C(F)(F)F)n(C5CC6(COC6)C5)n4)n(C)c3c2C#N)ccn1` [Example I-31, Methyl(4-((2-((1-(2-oxaspiro[3.3]heptan-6-yl)-5-(trifluoromethyl)-1H-pyrazol-3-yl)amino)-7-cyano-1-methyl-1H-imidazo[4,5-b]pyridin-6-yl)oxy)pyridin-2-yl)carbamate], the Kd was 10 to 50 nM. `COCCOC(=O)Nc1cc(Oc2cnc3nc(Nc4cc5n(n4)CCCC5(F)F)n(C)c3c2C#N)ccn1` [Example I-32, 2-Methoxyethyl(4-((7-cyano-2-((4,4-difluoro-4,5,6,7-tetrahydropyrazolo[1,5-a]pyridin-2-yl)amino)-1-methyl-1H-imidazo[4,5-b]pyridin-6-yl)oxy)pyridin-2-yl)carbamate] was tested, and the Kd was under 10 nM. For `CO[C@@H]1CCN(C(=O)Nc2cc(Oc3cnc4nc(Nc5cc6n(n5)CCCC6(F)F)n(C)c4c3C#N)ccn2)C1` [Example I-33], the Kd was under 10 nM. In the case of `CO[C@H]1CCN(C(=O)Nc2cc(Oc3cnc4nc(Nc5cc6n(n5)CCCC6(F)F)n(C)c4c3C#N)ccn2)C1` [Example I-34, (S)-N-(4-((7-cyano-2-((4,4-difluoro-4,5,6,7-tetrahydropyrazolo[1,5-a]pyridin-2-yl)amino)-1-methyl-1H-imidazo[4,5-b]pyridin-6-yl)oxy)pyridin-2-yl)-3-methoxypyrrolidine-1-carboxamide], the Kd is reported as under 10 nM. In the case of `Cn1c(Nc2cc3n(n2)CCCC3(F)F)nc2ncc(Oc3ccnc(NC(=O)N4CC(O)C4)c3)c(C#N)c21` [Example I-35, N-(4-((7-cyano-2-((4,4-difluoro-4,5,6,7-tetrahydropyrazolo[1,5-a]pyridin-2-yl)amino)-1-methyl-1H-imidazo[4,5-b]pyridin-6-yl)oxy)pyridin-2-yl)-3-hydroxyazetidine-1-carboxamide], the Kd is reported as under 10 nM. `Cn1c(Nc2cc3n(n2)CCCC3(F)F)nc2ncc(Oc3ccnc(NC(=O)O[C@H]4CCOC4)c3)c(C#N)c21` [Example I-36, (S)-tetrahydrofuran-3-yl(4-((7-cyano-2-((4,4-difluoro-4,5,6,7-tetrahydropyrazolo[1,5-a]pyridin-2-yl)amino)-1-methyl-1H-imidazo[4,5-b]pyridinyl)oxy)pyridin-2-yl)carbamate] showed a Kd of under 10 nM. Work on `Cn1c(Nc2cc3n(n2)CCCC3(F)F)nc2ncc(Oc3ccnc(NC(=O)O[C@@H]4CCOC4)c3)c(C#N)c21` [Example I-37, (R)-tetrahydrofuran-3-yl(4-((7-cyano-2-((4,4-difluoro-4,5,6,7-tetrahydropyrazolo[1,5-a]pyridin-2-yl)amino)-1-methyl-1H-imidazo[4,5-b]pyridin-6-yl)oxy)pyridin-2-yl)carbamate] yielded a Kd of under 10 nM.
